Target: human PD-L1 / Human PD-1 (Homo sapiens (Human), UniProt Q9NZQ7)
Assay: Enzyme-Linked Immunosorbent Assay (ELISA), PD-1/PD-L1 binding
Details: not given
Method: Plates were coated with 1 μg/mL of human PD-L1 (obtained from R&D) in PBS overnight at 4° C. The wells were then blocked with PBS containing 2% BSA in PBS (W/V) with 0.05% TWEEN-20 for 1 hour at 37° C. The plates were washed 3 times with PBS/0.05% TWEEN-20 and the samples were diluted to 1:5 in dilution medium in the ELISA plates. Human PD-1 and biotin 0.3 μg/mL (ACRO Biosystems) were added and incubated for 1 hour at 37° C. then washed 3 times with PBS/0.05% TWEEN-20. A second block was added with PBS containing 2% BSA in PBS (W/V)/0.05% TWEEN-20 for 10 min at 37° C. and was washed 3 times with PBS/0.05% TWEEN-20. Streptavidin-HRP was added for 1 hour at 37° C. then washed 3 times with PBS/0.05% TWEEN-20. TMB substrate was added and reacted for 20 min at 37° C. A stop solution (2 N aqueous H2SO4) was added. The absorbance was read at 450 nm using a micro-plate spectrophotometer.
Compounds in Table 2 and Table 3 were prepared by methods as described in the Examples, and evaluated according to the assay below.

human PD-L1 / Human PD-1, sequence (Q9NZQ7 19-239): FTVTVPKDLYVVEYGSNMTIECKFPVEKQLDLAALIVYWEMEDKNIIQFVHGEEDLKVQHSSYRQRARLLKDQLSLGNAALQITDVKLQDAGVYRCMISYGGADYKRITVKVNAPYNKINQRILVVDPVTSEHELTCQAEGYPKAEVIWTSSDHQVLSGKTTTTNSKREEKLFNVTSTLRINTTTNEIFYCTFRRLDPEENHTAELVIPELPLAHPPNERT

SMILES | IC50
N#Cc1cncc(COc2cc(O[C@H]3CCc4c(-c5ccccc5F)cccc43)c(Cl)cc2CN2CCC(F)CC2)c1 [Example 2.094] | 100 to 500 nM

Same assay, conditions: Table 2; plate-coated human PD-L1, biotinylated human PD-1; read-out: ELISA IC50

IC50 | SMILES
100 to 500 nM | N#Cc1cncc(COc2cc(O[C@H]3CCc4c(-c5ccccc5F)cccc43)c(Cl)cc2CN2CC[C@H](O)C2)c1 [Example 2.020]
< 100 nM | N#Cc1cncc(COc2cc(O[C@H]3CCc4c(-c5ccccc5F)cccc43)c(Cl)cc2CNC2(C(=O)O)CC2)c1 [Example 2.144]
100 to 500 nM | COc1ccc(F)c(-c2cccc3c2CC[C@@H]3Oc2cc(OCc3cncc(C#N)c3)c(CN3CC(O)C3)cc2Cl)c1 [Example 2.077]
< 100 nM | N#Cc1cncc(COc2cc(O[C@H]3CCc4c(-c5ccccc5F)cccc43)c(Cl)cc2CN[C@@H](CO)C(=O)O)c1 [Example 2.004]
100 to 500 nM | N#Cc1cncc(COc2cc(OC3CCc4c(-c5ccccc5)cccc43)c(Cl)cc2CNC[C@@H](O)CC(=O)O)c1 (some centres unmarked) [Example 1.002]
100 to 500 nM | COc1ccc(-c2cccc3c2CC[C@@H]3Oc2cc(OCc3cncc(C#N)c3)c(CN[C@@H](CO)C(=O)O)cc2Cl)cc1C [Example 2.023]
100 to 500 nM | N#Cc1cncc(COc2cc(O[C@H]3CCc4c(-c5ccccc5F)cccc43)c(Cl)cc2CN2CCCC(O)C2)c1 (some centres unmarked) [Example 2.030]
500 to 20000 nM | COc1cccc(F)c1-c1cccc2c1CC[C@@H]2Oc1cc(OCc2cncc(C#N)c2)c(CN2CCC(O)CC2)cc1Cl [Example 2.108]
< 100 nM | N#Cc1cncc(COc2cc(O[C@H]3CCc4c(-c5ccccc5F)cccc43)c(Cl)cc2CN2CC[C@@H](O)C2)c1 [Example 2.019]
100 to 500 nM | CC(C)(O)CNCc1cc(Cl)c(O[C@H]2CCc3c(-c4ccccc4F)cccc32)cc1OCc1cncc(C#N)c1 [Example 2.143]
100 to 500 nM | COc1ccc(F)c(-c2cccc3c2CC[C@@H]3Oc2cc(OCc3cncc(C#N)c3)c(CN3CCC(O)CC3)cc2Cl)c1 [Example 2.079]
500 to 20000 nM | COc1cccc(-c2cccc3c2CCC3CCOc2cc(OCc3cncc(C#N)c3)c(CN3CCC(O)CC3)cc2Cl)c1F (centres unmarked) [Example 2.087]
< 100 nM | Cc1ccc(F)c(-c2cccc3c2CC[C@@H]3Oc2cc(OCc3cncc(C#N)c3)c(CN[C@@H](CO)C(=O)O)cc2Cl)c1 [Example 2.067]
100 to 500 nM | N#Cc1cncc(COc2cc(O[C@H]3CCc4c(-c5ccccc5)cccc43)c(Cl)cc2CNCC2CCC(=O)N2)c1 (some centres unmarked) [Example 1.014]
500 to 20000 nM | N#Cc1cncc(COc2cc(O[C@H]3CCc4c(-c5ccccc5F)cccc43)c(Cl)cc2CNC(=O)CCCC(=O)O)c1 [Example 2.173]
500 to 20000 nM | O=C(O)[C@H](CO)NCc1cc(Cl)c(OC2CCc3c(-c4ccccc4)cccc32)cc1OCc1cccnc1 (some centres unmarked) [Example 1.011]
< 100 nM | COc1cccc(-c2cccc3c2CC[C@@H]3Oc2cc(OCc3cncc(C#N)c3)c(CN[C@H](CO)C(=O)O)cc2Cl)c1F [Example 2.107]
< 100 nM | N#Cc1cncc(COc2cc(O[C@H]3CCc4c(-c5ccccc5F)cccc43)c(Cl)cc2CNC2(C(=O)O)CCCC2)c1 [Example 2.165]
< 100 nM | N#Cc1cncc(COc2cc(O[C@H]3CCc4c(-c5ccccc5F)cccc43)c(Cl)cc2CN2CCC(C(=O)O)C2)c1 (some centres unmarked) [Example 2.032]
< 100 nM | COc1cccc(-c2cccc3c2CC[C@@H]3Oc2cc(OCc3cncc(C#N)c3)c(CN[C@@H](CO)C(=O)O)cc2Cl)c1F [Example 2.028]
500 to 20000 nM | COc1cccc(-c2cccc3c2CCC3CCOc2cc(OCc3cncc(C#N)c3)c(CN[C@@H](CO)C(=O)O)cc2Cl)c1F (some centres unmarked) [Example 2.085]
100 to 500 nM | C[C@@H](O)[C@H](NCc1cc(Cl)c(O[C@H]2CCc3c(-c4ccccc4F)cccc32)cc1OCc1cncc(C#N)c1)C(N)=O [Example 2.149]
< 100 nM | C[C@@](CO)(NCc1cc(Cl)c(O[C@H]2CCc3c(-c4ccccc4F)cccc32)cc1-c1cncc(C#N)c1)C(=O)O [Example 2.159]
< 100 nM | CCOc1cc(O[C@H]2CCc3c(-c4ccccc4F)cccc32)c(Cl)cc1CNC(CO)(CO)CO [Example 2.164]
100 to 500 nM | N#Cc1cncc(COc2cc(O[C@H]3CCc4c(-c5ccccc5F)cccc43)c(Cl)cc2CN[C@@H](CO)C(N)=O)c1 [Example 2.167]

SMILES | IC50
N#Cc1cncc(COc2cc(O[C@H]3CCc4c(-c5ccccc5F)cccc43)c(Cl)cc2CN2CCC(F)CC2)c1 [Example 2.093] | 500 to 20000 nM
N#Cc1cncc(COc2cc(OC3CCc4c(-c5ccccc5)cccc43)c(Cl)cc2CNCc2nnn[nH]2)c1 (centres unmarked) [Example 1.003] | < 100 nM

Same assay, conditions: Table 3; plate-coated human PD-L1, biotinylated human PD-1; read-out: ELISA IC50

IC50 | SMILES
< 100 nM | O=C(O)[C@H](CO)NCc1cc(Cl)c(O[C@H]2CCc3c(-c4ccccc4F)cccc32)cc1OCc1cncc(Br)c1 [Example 3.100]
< 100 nM | N#Cc1cncc(COc2cc(O[C@H]3CCc4c(-c5ccccc5F)cccc43)c(Cl)cc2CN[C@@H]2CCCC[C@H]2O)c1 [Example 3.071]
< 100 nM | C[C@@H](O)[C@H](NCc1cc(Cl)c(O[C@H]2CCc3c(-c4ccc5c(c4F)OCCO5)cccc32)cc1OCc1cncc(C#N)c1)C(=O)O [Example 3.053]
100 to 500 nM | N#Cc1cncc(COc2cc(O[C@H]3CCc4c(-c5ccccc5F)cccc43)c(Cl)cc2CN[C@H]2CCc3ccc(O)cc3C2)c1 [Example 3.093]
100 to 500 nM | CC(NCc1cc(Cl)c(O[C@H]2CCc3c(-c4ccccc4F)cccc32)cc1OCc1cncc(C#N)c1)c1ccn(C)n1 (some centres unmarked) [Example 3.066]
100 to 500 nM | CC(Cc1ccccn1)NCc1cc(Cl)c(O[C@H]2CCc3c(-c4ccccc4F)cccc32)cc1OCc1cncc(C#N)c1 (some centres unmarked) [Example 3.052]
< 100 nM | N#Cc1cncc(COc2cc(O[C@H]3CCc4c(-c5ccc6c(c5F)OCCO6)cccc43)c(Cl)cc2CNC(CO)(CO)CO)c1 [Example 3.057]
< 100 nM | N#Cc1cncc(COc2cc(O[C@H]3CCc4c(-c5ccccc5F)cccc43)c(Cl)cc2CN[C@@H]2COC[C@H]2O)c1 [Example 3.039]
100 to 500 nM | O=C(O)[C@H](CO)NCc1cc(Cl)c(O[C@H]2CCc3c(-c4ccccc4F)cccc32)cc1OCc1cncc(-c2nn[nH]n2)c1 [Example 3.108]
500 to 20000 nM | N#Cc1cncc(COc2cc(O[C@H]3CCc4c(-c5ccccc5F)cccc43)c(Cl)cc2CNCc2ncc(-c3ccccc3)[nH]2)c1 [Example 3.081]
500 to 20000 nM | N#Cc1cncc(COc2cc(O[C@H]3CCc4c(-c5ccccc5F)cccc43)c(Cl)cc2CNC2CC(=O)NC(=O)C2)c1 [Example 3.065]
100 to 500 nM | N#Cc1cncc(COc2cc(O[C@H]3CCc4c(-c5ccccc5F)cccc43)c(Cl)cc2CN[C@H](CCCNC(=N)N)C(=O)O)c1 [Example 3.098]
500 to 20000 nM | N#Cc1cncc(COc2cc(O[C@H]3CCc4c(-c5ccccc5F)cccc43)c(Cl)cc2CN2CC(O)C2)c1 [Example 3.114]
500 to 20000 nM | N#Cc1cncc(COc2cc(O[C@H]3CCc4c(Br)cccc43)c(Cl)cc2CN[C@@H](CO)C(=O)O)c1 [Example 3.028]
< 100 nM | N#Cc1cncc(COc2cc(O[C@H]3CCc4c(-c5cc(F)c6c(c5)OCCO6)cccc43)c(Cl)cc2CN[C@@H](CO)C(=O)O)c1 [Example 3.017]
< 100 nM | CC(O)C(NCc1cc(Cl)c(O[C@H]2CCc3c(-c4ccccc4F)cccc32)cc1OCc1cncc(C#N)c1)c1nnn[nH]1 (some centres unmarked) [Example 3.134]
< 100 nM | CS(=O)(=O)c1cc(COc2cc(O[C@H]3CCc4c(-c5ccccc5F)cccc43)c(Cl)cc2CN[C@@H](CO)C(=O)O)cc(S(C)(=O)=O)c1 [Example 3.001]
< 100 nM | N#Cc1ccnc(COc2cc(O[C@H]3CCc4c(-c5ccc6c(c5F)OCCO6)cccc43)c(Cl)cc2CN[C@@H](CO)C(=O)O)c1 [Example 3.026]
100 to 500 nM | CCOC(=O)[C@](C)(CO)NCc1cc(Cl)c(O[C@H]2CCc3c(-c4ccc5c(c4F)OCCO5)cccc32)cc1OCc1cncc(C#N)c1 [Example 3.031]
< 100 nM | N#Cc1cncc(COc2cc(OC3CCc4c(-c5ccccc5F)cccc43)c(F)cc2CN[C@@H](CO)C(=O)O)c1 (some centres unmarked) [Example 3.070]
100 to 500 nM | N#Cc1cncc(COc2cc(O[C@H]3CCc4c(-c5ccccc5O)cccc43)c(Cl)cc2CN[C@@H](CO)C(=O)O)c1 [Example 3.079]
< 100 nM | N#Cc1cc(C#N)cc(COc2cc(O[C@H]3CCc4c(-c5ccccc5F)cccc43)c(Cl)cc2CN[C@@H](CO)C(=O)O)c1 [Example 3.004]
100 to 500 nM | N#Cc1cncc(COc2cc(O[C@H]3CCc4c(-c5ccccc5F)cccc43)c(Cl)cc2CNCCCCN(CCO)CCO)c1 [Example 3.088]
< 100 nM | N#Cc1cc(Cl)cc(COc2cc(O[C@H]3CCc4c(-c5ccc6c(c5F)OCCO6)cccc43)c(Cl)cc2CN[C@@H](CO)C(=O)O)c1 [Example 3.015]
< 100 nM | N#Cc1cncc(COc2cc(O[C@H]3CCc4c(-c5ccccc5F)cccc43)c(Cl)cc2CN[C@H](CNC(=N)N)C(=O)O)c1 [Example 3.083]
500 to 20000 nM | N#Cc1cncc(COc2cc(O[C@H]3CCc4c(-c5ccc6c(c5)OC(F)(F)O6)cccc43)c(Cl)cc2CN[C@@H](CO)C(=O)O)c1 [Example 3.107]
< 100 nM | N#Cc1cncc(COc2cc(O[C@H]3CCc4c(-c5ccccc5F)cccc43)c(Cl)cc2CNCC(=O)NCC(=O)O)c1 [Example 3.062]
100 to 500 nM | Cn1nnc(-c2cncc(COc3cc(O[C@H]4CCc5c(-c6ccccc6F)cccc54)c(Cl)cc3CN[C@@H](CO)C(=O)O)c2)n1 [Example 3.101]
